Starred links: 1 amine or outer side, 2 acyl side, 3 side chain; linkers in the order of their positions; H or OH if unused. Residues, ends and D or L forms follow the SMILES beside them. Groups on a side chain read outwards from the residue. *: point of attachment. Pteroyl = Nc1nc2ncc(CNc3ccc(C(=O)*)cc3)nc2c(=O)[nH]1; γGlu = O=C(O)[C@H](CCC(=O)[*:2])N[*:1]
Key:
SW480 cells = test: Dose response in SW480; type: cell-based, human; conditions: 2 days
Method: 1. Dissolve the drug at a concentration of 10 mg/ml in PBS.
3. A confluent flask of SW480 cells was treated with trypsin and the cells were suspended in growth media at concentrations of 5×10^5 cells/ml.
5. Incubate at 37° C., 5% CO2 for 2 days.

normal human lymphocytes = conditions: 3.125-800 g/ml as printed, 2 days
Method: Growth media used is the RPMI-1640 (Gibco Laboratories, Grand Island, N.Y.) supplemented with 25 mM Hepes buffer, 10% FBS serum (Gibco), 100 U/ml penicillin/streptomycin, 50 μg/ml gentamycin, 2 mM L-glutamin, 1× nonessential amino acids (Gibco)
In a 50-ml centrifugation tube, add 10 ml of Lymphoprep™. 2. Mix 15 ml blood and 15 ml HBSS-buffer (containing heparin). 3. Carefully add the blood mixture from step 2, to the tubes containing Lymphoprep™ without mixing the phases. 4. Centrifuge at 450 g at room temperature for 45 min. 5. Isolate the Buffy-coat layer containing the PBMC (peripheral blood mononuclear cells), and place in a fresh tube. 6. Add 7 ml HBSS-buffer to the tube to wash the PBMC. 7. Centrifuge 5-10 min 600 g. 8. Remove the supernatant and wash the PBMC again with a total of 10-ml HBSS-. 9. Suspend the cells in complete media RPMI 1640. Incubate the cells in a small culture flask for 1 hour at 37° C. 10. Remove the unattached cells (lymphocytes) from the small culture flask and dilute the cells to a concentration of 5×10^5 cell/ml. 11. Dissolve drug at 10 mg/ml in PBS. 12. Add 100 μl of growth media to the rest of the wells. 13. Prepare 100 l of a series of concentration of 1600, 800, 400, 200, 100, 50, 25, 12.5, 6.25 μg/ml were made. Triplicate wells were used for each concentration as well as the control (0.0 g/ml), for each of Drug1, 2 and 3. 14. […]

TrpR (G85E) = TrpR (G85E) (Escherichia coli, UniProt P0A881, G85E); conditions: peptide expressed from pPep plasmid
Method: (§1) A λRTLF culture containing pTrpRep(WT), pTrpRep(T44M), pTrprG85E, and pTrpRep(None) were transformed with one of pPep(MGFLR) or pPep(MGFWR), and grown in both BTTRG and BTTRA media to an OD of 0.6 at wavelength 600 at 30° C. with shaking. Two hundred microliters of cultures assayed for β-galactosidase levels at wavelength 405 nm as described in Fenton et al (1998) BBRC 242(1):71-78.
(§2) λRTLF cultures containing one of pTrpRep(WT), pTrpRep(T44M), pTrprG85E, or pTrpRep(None) were grown in BTTRG media supplemented with one of following synthesized peptides MGFLR, MGFWR, MGRRW, FLR, FWR at a concentration of 1 mM. The cultures were grown to an OD of 0.6 at wavelength 600 at 30° C. with shaking. Two hundred microlitres of cultures assayed for -galactosidase levels at wavelength 405 as described in Fenton et al (1998) supra.

TrpR(T44M) [1] = target: T1, TrpR(T44M) (Escherichia coli, UniProt P0A881, T44M); conditions: peptide expressed from pPep plasmid, arabinose induced
Method: as §1, §2
The cultures were grown to an OD of 0.6 at wavelength 600 at 30° C. with shaking.

TrpR(T44M) [2] = target: T1, TrpR(T44M); conditions: arabinose induced expression, both in the presence and absence of tryptophan
Method: RNA was electophoresed through a 1% formaldehyde gel according to Sambrooke et al's Manual (1989). The gel was capillary blotted onto nitrocellulose filter paper using the standard protocols. RNA was UV crosslinked by 45 seconds of UV exposure. The filter was prehydridised for 3 hours at 65 C and then hybridised for 36 hours at 65° C. Hybridisation buffers were in accordance with Sambrook. The filter was dried at room temperature and placed in a phosphoimager cassette overnight. The filter was then scanned by Molecular Dynamics phosphoimager 400e (880 E. Argues Ave, Sunnyvale Calif. 94086).

[3] = system: R273H/P309S p53 mutant in SW480.7 cells; test: RT-PCR analysis of mRNA level of p53 transactivated genes; type: cell-based, Homo sapiens (human); conditions: ligand transfected SW480.7 compared with empty pCEP4 transfected SW480.7, RT-PCR
Source text: Total RNA was collected, from two wells of one ligand transfected SW480.7 plate and one pCEP4 transfected SW480.7 plate each day on day 0, day 1, and day 2 after transfection. Thus RNA samples were harvested as SW480.7/Ligand-0 day, SW480.7/Ligand-1 day, SW480.7/Ligand-2 day, SW480.7/pCEP4-0 day, SW480.7/pCEP4-1 day, SW480.7/pCEP4-2 day. Protocol for total RNA extraction by TRIZOL® Reagent was according to that given by Life Technology:
First-Strand cDNA Synthesis • 1. For each RNA sample, combine the following reagents in a sterile 0.2-ml reaction tube:
• 2. Mix and spin the tube briefly. • 3. Incubate the tube at 70° C. in a thermal cycler for 2 min. • 4. Spin the tube briefly to collect contents at the bottom. Keep tube at room temperature. • 5. Add the following to each reaction tube:
• 6. Gently vortex and spin the tubes briefly. • 7. Incubate the tubes at 42° C. for 1 hr in an air incubator or cycler. • 8. Add 40 μl TE buffer (10 mM Tris (pH7.6), 1 mM EDTA) to dilute the first-strand reaction product. • 9. Heat tubes at 72° C. for 7 min to inactivate reverse transcriptase. • 10. Samples can be stored at −20° C. for up to three months. cDNA Amplification by PCR • 1. Preheat the PCR thermal cycler to 95° C. • 2. For each reaction, 5 μl of diluted first-strand cDNA and 5 μl of deionized water are added to a labeled 0.2-ml reaction tube. • 3. Prepare a master mix for all reaction tubes, plus one additional tube. For each reaction:
• 4. Mix by vortexing and spin the tube briefly. • 5. Aliquot 40 μl of the PCR Master Mix into each tube from Step 2. • 6. Cap the tube, and place it in the preheated thermal cycler. • 7. PCR was carried out using the following cycling parameters:
• 8. Electrophoreses 5 μl of each PCR reaction alongside 0.1 μg of 1-kb DNA ladder on a 1.2% agarose/EtBr gel in 1× TBE buffer. Results

Saos-2 cells = test: Validation of selected peptide ligand: cell proliferation/death after transfection; type: cell-based, Homo sapiens (human); conditions: Saos-2 (p53 null), ligand expressed from pCEP4 plasmid, without puromycin selection
Method: (§3) Cells SW480.7, U-2OS, and Sa-os2 were transfected with peptide ligand and pCEP4 parallelly using the calcium phosphate method.
(§4) After transfection, cells were cultured without drug selection and diluted at the ratio of 1:100 every five days. Cell proliferation status was closely observed until ligand transfected SW480.7 cells died out. Life staining with 0.4% trypan blue was applied to determine the death of the cells. Dead cells can not exclude the dye thus were stained blue. Living cells can pump the dye outside thus were not stained.

SW480.7 cells = test: as above; type: cell-based, Homo sapiens (human); conditions: SW480.7, ligand expressed from pCEP4 plasmid, 15 days without puromycin selection
Method: as §3, §4

U2-OS cells = test: as above; type: cell-based, Homo sapiens (human); conditions: U2-OS (wild type p53), ligand expressed from pCEP4 plasmid, without puromycin selection
Method: as §3, §4

CSCC[C@H](N)C(=O)NCC(=O)N[C@@H](Cc1c[nH]c2ccccc12)C(=O)N[C@@H](CS)C(=O)N[C@H](C(=O)N[C@@H](CCCCNC(=O)CC[C@H](NC(=O)c1ccc(NCc2cnc3nc(N)[nH]c(=O)c3n2)cc1)C(=O)O)C(=O)O)[C@@H](C)O [Drug 2, MGWCT-K-Folic] (H-MGWCTK([γGlu-Pteroyl])-OH; N-terminus and C-terminus assumed)
Activity on metastatic cancer cells SW480 (number of surviving cells) (SW480 cells; 3.125-800 μg/ml): best results
IC50 as molar amount per well (SW480 cells; SW480 cells): 0.0257 μmol/well
Effect on normal human lymphocytes (number of surviving cells) (normal human lymphocytes): no effect

MGFLR
Restoration of TrpR mutant G85E function (β-galactosidase activity) (TrpR (G85E)): did not restore
Restoration of TrpR(T44M) function (β-galactosidase activity) (TrpR(T44M) [1]): restored TrpR(T44M) function
Transcription of LacZ (TrpR(T44M) [2]): repressed
Transcription of PheS (TrpR(T44M) [2]): repressed

MGFWR
Restoration of TrpR mutant G85E function (β-galactosidase activity) (TrpR (G85E)): did not restore
Restoration of TrpR(T44M) function (β-galactosidase activity) (TrpR(T44M) [1]): restored TrpR(T44M) function

MGWCT (peptide derivative) [Drug 3, Penta-peptide, no folate conjugation]
mRNA level of 14-3-3σ [3]: much higher
mRNA level of CD95 [3]: much higher
mRNA level of p21 (WAF1/Cip1) [3]: much higher
Cell status after transfecting the ligand (Saos-2 cells): growing well
Cell status after transfecting the ligand (SW480.7 cells): could no longer attach to the wall and died
Cell status after transfecting the ligand (U2-OS cells): growing well

— patent US8304211B2, “Methods of screening molecular libraries and active molecules identified thereby” (priority 2002, dated 2012)
